Test [1] deals with T1, Caspase-3 (Homo sapiens) (UniProt P42574).
T1 sequence (whole entry): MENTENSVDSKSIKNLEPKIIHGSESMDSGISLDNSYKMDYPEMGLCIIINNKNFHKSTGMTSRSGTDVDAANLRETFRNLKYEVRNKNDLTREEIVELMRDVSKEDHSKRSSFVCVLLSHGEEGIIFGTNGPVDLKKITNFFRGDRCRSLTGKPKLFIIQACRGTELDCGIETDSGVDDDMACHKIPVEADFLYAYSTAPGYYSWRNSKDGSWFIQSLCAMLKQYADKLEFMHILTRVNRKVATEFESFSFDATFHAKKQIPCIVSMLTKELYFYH
Description: Induction of autoactivation of procaspase-3 relative to control.

The species named for test [2] is Rattus norvegicus. In words: (§1) Activation of rat liver AMPK assessed as concentration required to induce 50 % activity.
Test [3] is filed under the species Rattus norvegicus. Description: Activation of rat liver AMPK relative to basal activity level. It is filed as tissue-based.
The species entered for test [4] is Rattus norvegicus. Description: Activation of rat liver AMPK alpha subunit assessed as concentration required to induce 50 % activity.
A short description of test [5]: as §1.

By AC50 is commonly meant the concentration giving half of the maximal activity seen.

Structures are written as SMILES.

In test [1], `C=CCc1cccc(/C=N/NC(=O)CN2CCN(Cc3ccccc3)CC2)c1O` showed a fold change (FC) of 3.

Regarding `N#Cc1c(O)c2c(-c3ccc(-c4ccccc4O)cc3)csc2[nH]c1=O`, in test [2], the Activity turned out to be 0.8 µM.

`Cc1cc(-c2ccc(/C=C3\S/C(=N\c4ccc(Cl)c(C(=O)O)c4)NC3=O)o2)c([N+](=O)[O-])cc1C` returned a fold change (FC) in test [3] of 1.5. In addition, the figures for the Activity in test [2] and in test [4] were 0.3 µM and 8 µM, respectively.

In the case of `Nc1ncnc2c1ncn2[C@@H]1O[C@H](COP(=O)(O)O)[C@@H](O)[C@H]1O` [ADENOSINE PHOSPHATE], the AC50 in test [5] was 56 µM.

These data come from ChEMBL document CHEMBL1240408, “Turning enzymes ON with small molecules” (Nat Chem Biol, 2010).
